Reference: patent publication US6525001B1, “Substituted pyrimidine and pyridine herbicides” (Mid-American Commercialization Corporation, priority 1997, dated 2003)

How the values were obtained:
Assay type in all cases: in vivo
[1] = tested on: bedstraw (Galium aparine); assay: Test B pre-/postemergence; design: key: 0 is no effect; 10 is complete control; conditions: for Bedstraw plant response rating: Preemergence
Text: (§1) Seeds of bedstraw (Galium aparine), blackgrass (Alopecurus myosuroides), broadleaf signalgrass (Brachiaria decumbens), cocklebur (Xanthium strumarium), corn (Zea mays), crabgrass (Digitaria sanguinalis), giant foxtail (Setaria faberii), lambsquarters (Chenopodium album), momingglory (Ipomoea hederacea), pigweed (Amaranthus retroflexus), rape (Brassica napus), soybean (Glycine max), sugar beet (Beta vulgaris), velvetleaf (Abutilon theophrasti), wheat (Triticum aestivum), wild oat (Avena fatua) and purple nutsedge (Cyperus rotundus) tubers were planted and treated preemergence with test chemicals formulated in a non-phytotoxic solvent mixture which included a surfactant.
(§2) At the same time, these crop and weed species were also treated with postemergence applications of test chemicals formulated in the same manner. Plants ranged in height from 2 to 18 cm (1- to 4-leaf stage) for postemergence treatments. Plant species in the flood test consisted of rice (Oryza sativa), smallflower flatsedge (Cyperus difformis), duck salad (Heteranthera limosa) and bamyardgrass (Echinochloa crus-galli) grown to the 2-leaf stage for testing. Treated plants and controls were maintained in a greenhouse for twelve to sixteen days, after which all species were compared to controls and visually evaluated. Plant response ratings, summarized in Table B, are based on a scale of 0 to 10 where 0 is no effect and 10 is complete control. A dash (−) response means no test result.

[2] = tested on: blackgrass (Alopecurus myosuroides); assay: Test B pre-/postemergence; design: key: 0 is no effect; 10 is complete control; conditions: for Blackgrass plant response rating: Preemergence
Text: as §1, §2

[3] = tested on: broadleaf signalgrass (Brachiaria decumbens); assay: Test B pre-/postemergence; design: key: 0 is no effect; 10 is complete control; conditions: for B. signalgrass plant response rating: Preemergence
Text: as §1, §2

[4] = tested on: cocklebur (Xanthium strumarium); assay: Test B pre-/postemergence; design: key: 0 is no effect; 10 is complete control; conditions: for Cocklebur plant response rating: Preemergence
Text: as §1, §2

corn (Zea mays) = assay: Test B pre-/postemergence; design: key: 0 is no effect; 10 is complete control; conditions: for Corn plant response rating: Preemergence
Text: as §1, §2

[5] = tested on: crabgrass (Digitaria sanguinalis); assay: Test B pre-/postemergence; design: key: 0 is no effect; 10 is complete control; conditions: for Crabgrass plant response rating: Preemergence
Text: as §1, §2

[6] = tested on: giant foxtail (Setaria faberii); assay: Test B pre-/postemergence; design: key: 0 is no effect; 10 is complete control
Text: as §1, §2

[7] = tested on: momingglory (Ipomoea hederacea); assay: Test B pre-/postemergence; design: key: 0 is no effect; 10 is complete control
Text: as §1, §2

[8] = tested on: pigweed (Amaranthus retroflexus); assay: Test B pre-/postemergence; design: key: 0 is no effect; 10 is complete control
Text: as §1, §2

rape (Brassica napus) = assay: Test B pre-/postemergence; design: key: 0 is no effect; 10 is complete control
Text: as §1, §2

soybean (Glycine max) = assay: Test B pre-/postemergence; design: key: 0 is no effect; 10 is complete control
Text: as §1, §2

[9] = tested on: sugar beet (Beta vulgaris); assay: Test B pre-/postemergence; design: key: 0 is no effect; 10 is complete control
Text: as §1, §2

[10] = tested on: velvetleaf (Abutilon theophrasti); assay: Test B pre-/postemergence; design: key: 0 is no effect; 10 is complete control
Text: as §1, §2

[11] = tested on: wheat (Triticum aestivum); assay: Test B pre-/postemergence; design: key: 0 is no effect; 10 is complete control
Text: as §1, §2

wild oat (Avena fatua) = assay: Test B pre-/postemergence; design: key: 0 is no effect; 10 is complete control
Text: as §1, §2

[12] = tested on: bamyardgrass (Echinochloa crus-galli); assay: Test B flood test
Experimental: as §2

[13] = tested on: duck salad (Heteranthera limosa); assay: Test B flood test
Experimental: as §2

rice (Oryza sativa) = assay: Test B flood test
Experimental: as §2

[14] = tested on: smallflower flatsedge (Cyperus difformis); assay: Test B flood test
Experimental: as §2

[15] = Rate 250 g/ha, Postemergence (so in the source)
[16] = Rate 62 g/ha, Postemergence (flood test)
[17] = Rate 125 g/ha, Postemergence, flood test
[18] = Rate 250 g/ha, Postemergence (flood test species)
[19] = Rate 125 g/ha, Postemergence section (flood test species)

CCc1cnc(-n2cnc(C(F)(F)F)c2)nc1Cc1cccc(OC(F)(F)F)c1 [Compound 49]
10: Plant response rating, Redroot pigweed [8, 15] | Plant response rating, Rape (rape (Brassica napus); [15])
4: Bedstraw plant response rating ([1]; Rate 62 g/ha) | Blackgrass plant response rating ([2]; Rate 62 g/ha) | Blackgrass plant response rating ([2]; Rate 125 g/ha) | Plant response rating, B. signalgrass ([3]; Rate 250 g/ha, Postemergence) | Plant response rating, Corn (corn (Zea mays); Rate 250 g/ha, Postemergence) | Plant response rating, Morningglory [7, 15] | Wheat plant response rating ([11]; Rate 62 g/ha, Postemergence) | Plant response rating, Wheat ([11]; Rate 125 g/ha, Preemergence) | Plant response rating, Wheat [11, 15] | Plant response rating, Ducksalad [13, 16] | Plant response rating, Ducksalad [13, 17] | Plant response rating, Ducksalad [13, 18] | Rice plant response rating (rice (Oryza sativa); [19]) | Plant response rating, S. Flatsedge [14, 16] | S. Flatsedge plant response rating [14, 19]
0: B. signalgrass plant response rating ([3]; Rate 62 g/ha) | Cocklebur plant response rating ([4]; Rate 62 g/ha) | Cocklebur plant response rating ([4]; Rate 125 g/ha) | Corn plant response rating (corn (Zea mays); Rate 62 g/ha) | Soybean plant response rating (soybean (Glycine max); Rate 62 g/ha, Preemergence)
6: Plant response rating, Blackgrass ([2]; Rate 125 g/ha, Postemergence) | Plant response rating, Blackgrass ([2]; Rate 250 g/ha, Postemergence) | Plant response rating, Blackgrass [2, 15] | Plant response rating, Crabgrass ([5]; Rate 125 g/ha, Postemergence) | Morningglory plant response rating ([7]; Rate 125 g/ha, Postemergence) | Plant response rating, Soybean (soybean (Glycine max); Rate 62 g/ha, Postemergence) | Sugarbeets plant response rating ([9]; Rate 62 g/ha, Preemergence) | Plant response rating, Sugarbeets ([9]; Rate 125 g/ha, Preemergence) | Wild oats plant response rating (wild oat (Avena fatua); Rate 125 g/ha, Postemergence) | Plant response rating, Wild oats (wild oat (Avena fatua); Rate 125 g/ha, Preemergence) | Plant response rating, Barnyardgrass [12, 18]
7: Bedstraw plant response rating ([1]; Rate 125 g/ha) | Plant response rating, Cocklebur ([4]; Rate 62 g/ha, Postemergence) | Plant response rating, Cocklebur ([4]; Rate 125 g/ha, Postemergence) | Crabgrass plant response rating ([5]; Rate 125 g/ha) | Rape plant response rating (rape (Brassica napus); Rate 62 g/ha, Preemergence) | Soybean plant response rating (soybean (Glycine max); Rate 125 g/ha, Postemergence) | Plant response rating, Soybean (soybean (Glycine max); Rate 250 g/ha, Postemergence) | Plant response rating, Wild oats (wild oat (Avena fatua); Rate 250 g/ha, Postemergence) | Plant response rating, Wild oats (wild oat (Avena fatua); [15])
2: Plant response rating, B. signalgrass ([3]; Rate 62 g/ha, Postemergence) | Plant response rating, Cocklebur [4, 15] | Plant response rating, Giant foxtail ([6]; Rate 62 g/ha, Postemergence) | Plant response rating, Morningglory ([7]; Rate 62 g/ha, Postemergence) | Wild oats plant response rating (wild oat (Avena fatua); Rate 62 g/ha, Preemergence)
9: Plant response rating, Bedstraw ([1]; Rate 62 g/ha, Postemergence) | Plant response rating, Cocklebur ([4]; Rate 250 g/ha, Postemergence) | Plant response rating, Crabgrass ([5]; Rate 250 g/ha, Postemergence) | Plant response rating, Crabgrass [5, 15] | Plant response rating, Giant foxtail [6, 15] | Plant response rating, Morningglory ([7]; Rate 250 g/ha, Postemergence) | Plant response rating, Redroot pigweed ([8]; Rate 62 g/ha, Postemergence) | Redroot pigweed plant response rating ([8]; Rate 125 g/ha, Postemergence) | Plant response rating, Redroot pigweed ([8]; Rate 250 g/ha, Postemergence) | Plant response rating, Rape (rape (Brassica napus); Rate 62 g/ha, Postemergence) | Rape plant response rating (rape (Brassica napus); Rate 125 g/ha, Postemergence) | Plant response rating, Rape (rape (Brassica napus); Rate 250 g/ha, Postemergence) | Plant response rating, Sugarbeets ([9]; Rate 62 g/ha, Postemergence) | Sugarbeets plant response rating ([9]; Rate 125 g/ha, Postemergence) | Plant response rating, Sugarbeets ([9]; Rate 250 g/ha, Postemergence) | Plant response rating, Sugarbeets [9, 15] | Plant response rating, Velvetleaf ([10]; Rate 250 g/ha, Postemergence) | Plant response rating, S. Flatsedge [14, 18]
8: Plant response rating, Bedstraw [1, 15] | Giant foxtail plant response rating ([6]; Rate 125 g/ha, Preemergence) | Redroot pigweed plant response rating ([8]; Rate 62 g/ha, Preemergence) | Redroot pigweed plant response rating ([8]; Rate 125 g/ha, Preemergence) | Rape plant response rating (rape (Brassica napus); Rate 125 g/ha, Preemergence) | Plant response rating, Velvetleaf ([10]; Rate 62 g/ha, Postemergence) | Velvetleaf plant response rating ([10]; Rate 125 g/ha, Postemergence) | Plant response rating, Velvetleaf ([10]; Rate 125 g/ha, Preemergence) | Plant response rating, Velvetleaf [10, 15]
1: B. signalgrass plant response rating ([3]; Rate 125 g/ha) | Corn plant response rating (corn (Zea mays); Rate 125 g/ha) | Plant response rating, Corn (corn (Zea mays); [15]) | Morningglory plant response rating ([7]; Rate 62 g/ha, Preemergence) | Plant response rating, Soybean (soybean (Glycine max); Rate 125 g/ha, Preemergence) | Plant response rating, Soybean (soybean (Glycine max); [15]) | Wheat plant response rating ([11]; Rate 62 g/ha, Preemergence)
3: Plant response rating, B. signalgrass ([3]; Rate 125 g/ha, Postemergence) | Plant response rating, Corn (corn (Zea mays); Rate 62 g/ha, Postemergence) | Plant response rating, Corn (corn (Zea mays); Rate 125 g/ha, Postemergence) | Morningglory plant response rating ([7]; Rate 125 g/ha, Preemergence) | Velvetleaf plant response rating ([10]; Rate 62 g/ha, Preemergence) | Plant response rating, Rice (rice (Oryza sativa); [16])
5: Plant response rating, Blackgrass ([2]; Rate 62 g/ha, Postemergence) | Plant response rating, B. signalgrass ([3]; Rate 250 g/ha, Postemergence as printed in head r139 (second section for compounds 26-50)) | Plant response rating, Crabgrass ([5]; Rate 62 g/ha, Postemergence) | Crabgrass plant response rating ([5]; Rate 62 g/ha) | Giant foxtail plant response rating ([6]; Rate 62 g/ha, Preemergence) | Giant foxtail plant response rating ([6]; Rate 125 g/ha, Postemergence) | Plant response rating, Giant foxtail ([6]; Rate 250 g/ha, Postemergence) | Wheat plant response rating ([11]; Rate 125 g/ha, Postemergence) | Plant response rating, Wheat ([11]; Rate 250 g/ha, Postemergence) | Wild oats plant response rating (wild oat (Avena fatua); Rate 62 g/ha, Postemergence) | Plant response rating, Barnyardgrass [12, 16] | Plant response rating, Barnyardgrass [12, 17] | Plant response rating, Rice (rice (Oryza sativa); [18])
